Results taken from PubChem BioAssay AID330 (DTP/NCI, 2004).
Toxic doses and inconclusive results are not listed.

Test system: P388 leukemia ip, CD2F1 mice, survival T/C
Assay: NCI In Vivo Anticancer Drug Screen. Data for tumor model P388 Leukemia (intraperitoneal) in CD2F1 (CDF1) mice
Details: endpoint: median survival time, higher = longer survival
Outline: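 Mice carrying the transplanted tumor received test compound or vehicle. Survival was recorded in each group, and the value is the treated-group measurement divided by that of the vehicle-treated control group.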

[1] = dose: 50.0 mg/kg/injection, schedule: Q01DX005 (ip), vehicle: saline with Tween-80
[2] = dose: 100.0 mg/kg/injection, schedule: Q01DX005 (ip), vehicle: saline with Tween-80
[3] = dose: 200.0 mg/kg/injection, schedule: Q01DX005 (ip), vehicle: saline with Tween-80
[4] = dose: 50.0 mg/kg/injection, schedule: Q01DX005 (ip), vehicle: saline
[5] = dose: 100.0 mg/kg/injection, schedule: Q01DX005 (ip), vehicle: saline
[6] = dose: 200.0 mg/kg/injection, schedule: Q01DX005 (ip), vehicle: saline
[7] = dose: 100.0 mg/kg/injection, schedule: Q01DX001 (ip), vehicle: Klucel (hydroxypropylcellulose) (HPC)
[8] = dose: 200.0 mg/kg/injection, schedule: Q01DX001 (ip), vehicle: Klucel (hydroxypropylcellulose) (HPC)
[9] = dose: 400.0 mg/kg/injection, schedule: Q01DX001 (ip), vehicle: Klucel (hydroxypropylcellulose) (HPC)
[10] = dose: 50.0 mg/kg/injection, schedule: Q01DX009 (ip), vehicle: saline with Tween-80
[11] = dose: 100.0 mg/kg/injection, schedule: Q01DX009 (ip), vehicle: saline with Tween-80
[12] = dose: 200.0 mg/kg/injection, schedule: Q01DX009 (ip), vehicle: saline with Tween-80
[13] = dose: 50.0 mg/kg/injection, schedule: Q01DX005 (ip), vehicle: Klucel (hydroxypropylcellulose) (HPC)
[14] = dose: 100.0 mg/kg/injection, schedule: Q01DX005 (ip), vehicle: Klucel (hydroxypropylcellulose) (HPC)
[15] = dose: 200.0 mg/kg/injection, schedule: Q01DX005 (ip), vehicle: Klucel (hydroxypropylcellulose) (HPC)
[16] = dose: 60.0 mg/kg/injection, schedule: Q01DX005 (ip), vehicle: saline with Tween-80
[17] = dose: 120.0 mg/kg/injection, schedule: Q01DX005 (ip), vehicle: saline with Tween-80
[18] = dose: 240.0 mg/kg/injection, schedule: Q01DX005 (ip), vehicle: saline with Tween-80

`C=C1C2CCC3C(CCC4C5(C)CCCC43CN3CCOC35)(C2)C1O` (configuration not stated) was tested, and the T/C (dose: 1.0 mg/kg/injection, schedule: Q01DX009 (ip), vehicle: Klucel (hydroxypropylcellulose) (HPC)) was 95 % of control, the T/C (dose: 2.0 mg/kg/injection, schedule: Q01DX009 (ip), vehicle: Klucel (hydroxypropylcellulose) (HPC)) was 97 % of control and the T/C (dose: 4.0 mg/kg/injection, schedule: Q01DX009 (ip), vehicle: Klucel (hydroxypropylcellulose) (HPC)) was 98 % of control. The T/C (dose: 8.0 mg/kg/injection, schedule: Q01DX009 (ip), vehicle: Klucel (hydroxypropylcellulose) (HPC)) was 97 % of control.

In the case of `CN(C)[C@@H]1C(=O)C(C(=O)NCN2CCN(C(=N)N=C(N)N)CC2)=C(O)[C@@]2(O)C(=O)C3=C(O)c4c(O)cccc4[C@@](C)(O)[C@H]3C[C@@H]12`, the T/C (dose: 1.8 mg/kg/injection, schedule: Q01DX005 (ip), vehicle: saline) is reported as 111 % of control, the T/C (dose: 3.0 mg/kg/injection, schedule: Q01DX005 (ip), vehicle: saline) is reported as 117 % of control and the T/C (dose: 8.33 mg/kg/injection, schedule: Q01DX005 (ip), vehicle: saline) is reported as 154 % of control. The T/C (dose: 10.0 mg/kg/injection, schedule: Q01DX005 (ip), vehicle: saline) was 89 % of control.

`C=C1CN(C(=O)c2ccccc2)C(=S)S1` was tested, and the T/C [1] was 108 % of control, the T/C [2] was 108 % of control and the T/C [3] was 103 % of control.

`[CH3][Ge]1([CH3])[CH]=CC(O)[CH2]1` (configuration not stated) was tested, and the T/C [4] was 98 % of control, the T/C [5] was 100 % of control and the T/C [6] was 100 % of control.

In the case of `Cc1ccc(C2(C)C(=O)c3ccccc3C2=O)cc1`, the T/C (dose: 100.0 mg/kg/injection, schedule: Q04DX002 (ip), vehicle: saline) is reported as 101 % of control, the T/C (dose: 200.0 mg/kg/injection, schedule: Q04DX002 (ip), vehicle: saline) is reported as 100 % of control and the T/C (dose: 400.0 mg/kg/injection, schedule: Q04DX002 (ip), vehicle: saline) is reported as 107 % of control.

With `Cc1ccc(OP(=O)(Oc2ccc(C)cc2)Oc2ccc(C)cc2)cc1.Cc1ccc(OP(=O)(Oc2ccc(C)cc2)Oc2ccc(C)cc2)cc1.Cc1ccc(OP(=O)(Oc2ccc(C)cc2)Oc2ccc(C)cc2)cc1.Cc1ccc(OP(=O)(Oc2ccc(C)cc2)Oc2ccc(C)cc2)cc1.[Cr+3].[O-][Cl+3]([O-])([O-])O` the T/C [7] was 100 % of control, the T/C [8] was 96 % of control and the T/C [9] was 89 % of control.

For `O=C1OC(C(O)CO)C(=N\Nc2ccc(Cl)cc2)/C1=N/Nc1ccccc1` (configuration not stated), the T/C [7] was 103 % of control, the T/C [8] was 103 % of control and the T/C [9] was 110 % of control.

With `OCC1OC(n2cnc3c(Cl)ncnc32)CC1O` (configuration not stated) the T/C [4] was 94 % of control, the T/C [5] was 92 % of control and the T/C [6] was 102 % of control.

In the case of `S=c1cc[nH]c2ccccc12`, the T/C (dose: 6.25 mg/kg/injection, schedule: Q01DX009 (ip), vehicle: other) is reported as 104 % of control, the T/C (dose: 12.5 mg/kg/injection, schedule: Q01DX009 (ip), vehicle: other) is reported as 104 % of control and the T/C (dose: 25.0 mg/kg/injection, schedule: Q01DX009 (ip), vehicle: other) is reported as 96 % of control. For the same compound, the T/C (dose: 50.0 mg/kg/injection, schedule: Q01DX009 (ip), vehicle: other) was 112 % of control and the T/C (dose: 100.0 mg/kg/injection, schedule: Q01DX009 (ip), vehicle: other) was 110 % of control.

`COC(=S)NC(=O)c1ccc(F)cc1` was tested, and the T/C [10] was 103 % of control, the T/C [11] was 112 % of control and the T/C [12] was 117 % of control. The T/C (dose: 400.0 mg/kg/injection, schedule: Q01DX009 (ip), vehicle: saline with Tween-80) was 110 % of control.

With `CN(CC(=O)C(O)C(O)C(O)CO)c1ccccc1` (configuration not stated) the T/C [4] was 99 % of control, the T/C [5] was 100 % of control and the T/C [6] was 100 % of control.

`Cc1ccc(NCCCN2CCN(CCCNc3ccc(C)c4sc5ccccc5c(=O)c34)CC2)c2c(=O)c3ccccc3sc12` was tested, and the T/C (dose: 0.5 mg/kg/injection, schedule: Q01DX005 (ip), vehicle: saline with Tween-80) was 97 % of control, the T/C (dose: 1.0 mg/kg/injection, schedule: Q01DX005 (ip), vehicle: saline with Tween-80) was 88 % of control and the T/C (dose: 2.0 mg/kg/injection, schedule: Q01DX005 (ip), vehicle: saline with Tween-80) was 97 % of control. The T/C (dose: 4.0 mg/kg/injection, schedule: Q01DX005 (ip), vehicle: saline with Tween-80) was 90 % of control.

`CCN(CC)CCOc1ccc(C(=O)CC(=O)c2c(-c3ccccc3)n(C)c3ccccc23)cc1` was tested, and the T/C (dose: 50.0 mg/kg/injection, schedule: Q01DX001 (ip), vehicle: saline) was 101 % of control, the T/C (dose: 100.0 mg/kg/injection, schedule: Q01DX001 (ip), vehicle: saline) was 94 % of control and the T/C (dose: 200.0 mg/kg/injection, schedule: Q01DX001 (ip), vehicle: saline) was 91 % of control.

In the case of `NC(N)=NNC(O)(C(=O)O)C(=O)O`, the T/C [13] is reported as 100 % of control, the T/C [14] is reported as 96 % of control and the T/C [15] is reported as 96 % of control.

With `CCCC(NC(=O)C(C)NC(=O)OCc1ccccc1)C(=O)O` (configuration not stated) the T/C [13] was 98 % of control, the T/C [14] was 96 % of control and the T/C [15] was 96 % of control.

In the case of `COc1cc(C2c3cc4c(cc3CC3COC(=O)C32)OCO4)cc(OC)c1O` (configuration not stated), the T/C (dose: 0.5 mg/kg/injection, schedule: Q01DX009 (ip), vehicle: saline with Tween-80) is reported as 105 % of control, the T/C (dose: 1.0 mg/kg/injection, schedule: Q01DX009 (ip), vehicle: saline with Tween-80) is reported as 103 % of control and the T/C (dose: 2.0 mg/kg/injection, schedule: Q01DX009 (ip), vehicle: saline with Tween-80) is reported as 114 % of control. For the same compound, the T/C (dose: 3.1 mg/kg/injection, schedule: Q01DX009 (ip), vehicle: saline with Tween-80) was 123 % of control and the T/C (dose: 4.0 mg/kg/injection, schedule: Q01DX009 (ip), vehicle: saline with Tween-80) was 107 % of control.

With `CC(=O)OC(CO)C(OC(C)=O)C(CNc1nc(N)[nH]c(=O)c1[N+](=O)[O-])OC(C)=O` (configuration not stated) the T/C [16] was 101 % of control, the T/C [17] was 92 % of control and the T/C [18] was 92 % of control.

For `CC(=O)N1c2ccccc2C(O)C1OC(=O)c1cccc(Cl)c1` (configuration not stated), the T/C [16] was 100 % of control, the T/C [17] was 103 % of control and the T/C [18] was 89 % of control.

For `COc1ccc(-c2cc3cc(OC)c(OC)cc3c[n+]2C)cc1OC`, the T/C (dose: 25.0 mg/kg/injection, schedule: Q04DX003 (ip), vehicle: saline) was 96 % of control, the T/C (dose: 50.0 mg/kg/injection, schedule: Q04DX003 (ip), vehicle: saline) was 94 % of control and the T/C (dose: 100.0 mg/kg/injection, schedule: Q04DX003 (ip), vehicle: saline) was 104 % of control.

In the case of `O=C(O)C(Cc1ccc(F)cc1)NC(=O)C(F)(F)F` (configuration not stated), the T/C [10] is reported as 95 % of control, the T/C [11] is reported as 95 % of control and the T/C [12] is reported as 100 % of control.

`CCCC1OP(=O)(N2CC(C)N(P3(=O)OCC(CC)C(CCC)O3)CC2C)OCC1CC` (configuration not stated) was tested, and the T/C [13] was 90 % of control and the T/C [14] was 101 % of control.

With `CCCCCCN(CCCCCC)CC(O)c1ccc(Br)c2ccccc12` (configuration not stated) the T/C [1] was 93 % of control, the T/C [2] was 93 % of control and the T/C [3] was 88 % of control.

`Brc1ccc2c(NCCCCCCCCNc3c4ccccc4nc4cc(Br)ccc34)c3ccccc3nc2c1` was tested, and the T/C (dose: 0.32 mg/kg/injection, schedule: Q01DX009 (ip), vehicle: other) was 100 % of control, the T/C (dose: 0.63 mg/kg/injection, schedule: Q01DX009 (ip), vehicle: other) was 99 % of control and the T/C (dose: 1.25 mg/kg/injection, schedule: Q01DX009 (ip), vehicle: other) was 107 % of control. For the same compound, the T/C (dose: 2.5 mg/kg/injection, schedule: Q01DX009 (ip), vehicle: other) was 109 % of control, the T/C (dose: 5.0 mg/kg/injection, schedule: Q01DX009 (ip), vehicle: other) was 96 % of control and the T/C (dose: 10.0 mg/kg/injection, schedule: Q01DX009 (ip), vehicle: other) was 101 % of control.

`NC/C(=N\O)c1ccc2ccccc2c1` was tested, and the T/C (dose: 60.0 mg/kg/injection, schedule: Q01DX005 (ip), vehicle: Klucel (hydroxypropylcellulose) (HPC)) was 100 % of control, the T/C (dose: 120.0 mg/kg/injection, schedule: Q01DX005 (ip), vehicle: Klucel (hydroxypropylcellulose) (HPC)) was 110 % of control and the T/C (dose: 240.0 mg/kg/injection, schedule: Q01DX005 (ip), vehicle: Klucel (hydroxypropylcellulose) (HPC)) was 105 % of control.

With `CCOC(=O)Nc1cc2c(c(N)n1)N=C(c1ccc(Cl)c(Cl)c1)CN2` the T/C (dose: 5.0 mg/kg/injection, schedule: Q01DX005 (ip), vehicle: saline with Tween-80) was 121 % of control and the T/C (dose: 10.0 mg/kg/injection, schedule: Q01DX005 (ip), vehicle: saline with Tween-80) was 158 % of control.

`C=C(c1ccc(OC)c(OC)c1)c1nccc2cc(OC)c(OC)cc12` was tested, and the T/C [13] was 98 % of control, the T/C [14] was 96 % of control and the T/C [15] was 100 % of control.
